# ChEMBL document CHEMBL1133829, “Design and synthesis of a novel class of histone deacetylase inhibitors” (Bioorg Med Chem Lett, 2001)
# Tests used:
# [1] = tested on: HCT-116; assay: In vitro antiproliferative activity against human colon cancer HCT 116 cells determined by […] assay; type: functional, cell-based
# [2] = tested on: Mus musculus; assay: In vivo inhibition of non small cell lung carcinoma A549 tumor in nude mice administered with a daily dose of 20 mg/kg for 21 days; type: functional; details: A549, 504 h
# [3] = biological target: T1, Histone deacetylase 1 (Homo sapiens, UniProt Q13547); assay: Concentration of compound required for acetylation of histone-4 in human T24 cancer cells; type: functional, cell-based, Cancer cell lines
# T1 sequence (Q13547 whole entry): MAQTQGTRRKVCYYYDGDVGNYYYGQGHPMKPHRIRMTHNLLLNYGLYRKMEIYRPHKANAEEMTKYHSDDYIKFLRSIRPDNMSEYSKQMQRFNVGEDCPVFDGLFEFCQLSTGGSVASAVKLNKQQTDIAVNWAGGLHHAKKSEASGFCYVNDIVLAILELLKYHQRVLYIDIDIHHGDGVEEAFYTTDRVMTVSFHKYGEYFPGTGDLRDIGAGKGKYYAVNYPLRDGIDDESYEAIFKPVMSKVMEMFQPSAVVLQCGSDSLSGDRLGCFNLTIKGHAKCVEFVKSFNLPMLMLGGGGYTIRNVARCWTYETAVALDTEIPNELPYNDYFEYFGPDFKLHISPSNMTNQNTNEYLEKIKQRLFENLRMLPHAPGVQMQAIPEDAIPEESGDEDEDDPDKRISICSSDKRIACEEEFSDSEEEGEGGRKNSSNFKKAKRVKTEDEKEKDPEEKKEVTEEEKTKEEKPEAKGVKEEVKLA
# [4] = tested on: Mus musculus; assay: In vivo inhibition of non small cell lung carcinoma A549 tumor in nude mice administered with a daily dose of 50 mg/kg for 21 days; type: functional; details: A549, 504 h
# [5] = tested on: Mus musculus; assay: In vivo inhibition of non small cell lung carcinoma A549 tumor in nude mice administered with a daily dose of 40 mg/kg for 21 days; type: functional; details: A549, 504 h
# [6] = biological target: T1, Histone deacetylase 1; assay: In vitro inhibition of partially purified recombinant human Histone deacetylase 1
SMILES,EC50 [1],inhibition in vivo at 20 mg/kg [2],EC50 [3],inhibition in vivo at 50 mg/kg [4],inhibition in vivo at 40 mg/kg [5],IC50 [6]
CC(/C=C/C(=O)NO)=C\[C@@H](C)C(=O)c1ccc(N(C)C)cc1 [TRICHOSTATIN],1000 nM,,,,,
COc1ccc(S(=O)(=O)Nc2ccc(/C=C/C(=O)NO)cc2)cc1OC,200 nM,41%,1000 nM,57%,50%,
COc1ccc(S(=O)(=O)Nc2ccc(/C=C/C(=O)NO)cc2)cc1,400 nM,,5000 nM,,,60 nM
O=C(/C=C/c1ccc(NS(=O)(=O)c2ccc(Cl)c(Cl)c2)cc1)NO,2000 nM,,5000 nM,,,100 nM
O=C(/C=C/c1ccc(NS(=O)(=O)c2ccccc2)cc1)NO,3000 nM,,,,,
Cc1ccc(S(=O)(=O)Nc2ccc(/C=C/C(=O)NO)cc2)cc1,700 nM,,10000 nM,,,
O=C(CCc1ccc(NS(=O)(=O)c2ccccc2)cc1)NO,2000 nM,,5000 nM,,,
CC(C)C(Cc1ccc(NS(=O)(=O)c2ccccc2)cc1)C(=O)NO (stereo unspecified),30000 nM,,> 25000 nM,,,> 25000 nM
O=C(/C=C/c1ccc(NS(=O)(=O)c2ccc(Cl)cc2)cc1)NO,1000 nM,,,,,
O=C(/C=C/c1ccc(NS(=O)(=O)c2ccc(Cl)cc2Cl)cc1)NO,4000 nM,,> 25000 nM,,,
O=C(Cc1ccc(NS(=O)(=O)c2ccccc2)cc1)NO,22000 nM,,> 25000 nM,,,1000 nM
